According to patent US20170107203A1, “HETEROCYCLIC INHIBITORS OF THE SODIUM CHANNEL” (EPIRUS BIOPHARMACEUTICALS, INC., priority 2014, published 2017):

Assays:
hNav1.7 [1] = target: T1, hNav1.7 (Homo sapiens, UniProt Q15858); assay: Nav1.7 potency, Patchliner automated patch clamp; assay type: cell-based; conditions: automated patchclamp
T1 construct: expressed in transfected cells
Experimental: (§1) The generation of a HEK 293F cell line stably expressing human Nav1.7/Navp1 was achieved by co-transfecting human SCN9A and human SCN1B cDNAs, subcloned into plasmid vectors, utilizing standard transfection techniques. Clones were selected using appropriate selection agents (0.3 mg/mL Zeocin and 0.8 mg/mL Geneticin) and maintained in Dulbecco's Modified Eagle medium, 10% fetal bovine serum, 1% non-essential amino acids to ˜80% confluence at 37° C. in a humidified incubator with 95% atmosphere and 5% CO2.
(§2) In some cases, the potency of compounds was measured using either the Patchliner automated patch clamp platform (Nanion) or manual patch clamp techniques. Both approaches allowed the compounds to be characterized based upon the ability of a compound to modulate use- and/or state-dependence. The potency data is tabulated in Table 3 and is represented by eight data fields. The first four fields represent potency data measured with the Patchliner automated platform under varying use- and state-dependent electrophysiology protocols similar to the Patch express protocols detailed above. The first data column describes the potency of compounds when the Nav1.7 channel is being repetitively activated at a 7 Hz hyperpolarization frequency (Table 3: hNav1.7: IC50 of inward current block at 7 Hz, Automated patchclamp). The second data column represents the potency at which 50% of the initial hyperpolarization pulse is inhibited by the compounds (Table 3: hNav1.7: IC50 of P1 block, Automated patchclamp). The third data column details the potency of compounds in their ability to block 50% of Nav1.7 channels when these channels are induced into the slow inactivated state (Table 3: hNav1.7: IC50 of slow inactivation block, Automated patchclamp). […] The next three data fields describe the data generated from manual patchclamp electrophysiology measurements using similar methods to those employed for automated patchclamp studies. […] The last column characterizes the state-dependence of compound inhibition. Compounds that maintain the greatest potency for the slow inactivated state over fast inactivated or tonic inhibition at 0.25 Hz are characterized as “state dependent, blocker of slow inactivation”.

human Nav1.7 = target: T2, human Nav1.7 (Homo sapiens, UniProt Q15858); assay: Assessment of Nav1.7 activity on PatchXpress (voltage dependence / slow inactivation parameters); assay type: cell-based; conditions: compound at 10 μM, relative to 0.2% DMSO vehicle control; for hNav1.7: Reduction in current at 20 mV (normalized data) Delta Ratio: before/after 30 sec conditioning pulse at 20 mV; for hNav1.7: Shift in voltage dependence of inactivation (mV) Delta Vhalf: PatchXpress
T2 construct: expressed in transfected cells
T2 sequence (Q15858 whole entry): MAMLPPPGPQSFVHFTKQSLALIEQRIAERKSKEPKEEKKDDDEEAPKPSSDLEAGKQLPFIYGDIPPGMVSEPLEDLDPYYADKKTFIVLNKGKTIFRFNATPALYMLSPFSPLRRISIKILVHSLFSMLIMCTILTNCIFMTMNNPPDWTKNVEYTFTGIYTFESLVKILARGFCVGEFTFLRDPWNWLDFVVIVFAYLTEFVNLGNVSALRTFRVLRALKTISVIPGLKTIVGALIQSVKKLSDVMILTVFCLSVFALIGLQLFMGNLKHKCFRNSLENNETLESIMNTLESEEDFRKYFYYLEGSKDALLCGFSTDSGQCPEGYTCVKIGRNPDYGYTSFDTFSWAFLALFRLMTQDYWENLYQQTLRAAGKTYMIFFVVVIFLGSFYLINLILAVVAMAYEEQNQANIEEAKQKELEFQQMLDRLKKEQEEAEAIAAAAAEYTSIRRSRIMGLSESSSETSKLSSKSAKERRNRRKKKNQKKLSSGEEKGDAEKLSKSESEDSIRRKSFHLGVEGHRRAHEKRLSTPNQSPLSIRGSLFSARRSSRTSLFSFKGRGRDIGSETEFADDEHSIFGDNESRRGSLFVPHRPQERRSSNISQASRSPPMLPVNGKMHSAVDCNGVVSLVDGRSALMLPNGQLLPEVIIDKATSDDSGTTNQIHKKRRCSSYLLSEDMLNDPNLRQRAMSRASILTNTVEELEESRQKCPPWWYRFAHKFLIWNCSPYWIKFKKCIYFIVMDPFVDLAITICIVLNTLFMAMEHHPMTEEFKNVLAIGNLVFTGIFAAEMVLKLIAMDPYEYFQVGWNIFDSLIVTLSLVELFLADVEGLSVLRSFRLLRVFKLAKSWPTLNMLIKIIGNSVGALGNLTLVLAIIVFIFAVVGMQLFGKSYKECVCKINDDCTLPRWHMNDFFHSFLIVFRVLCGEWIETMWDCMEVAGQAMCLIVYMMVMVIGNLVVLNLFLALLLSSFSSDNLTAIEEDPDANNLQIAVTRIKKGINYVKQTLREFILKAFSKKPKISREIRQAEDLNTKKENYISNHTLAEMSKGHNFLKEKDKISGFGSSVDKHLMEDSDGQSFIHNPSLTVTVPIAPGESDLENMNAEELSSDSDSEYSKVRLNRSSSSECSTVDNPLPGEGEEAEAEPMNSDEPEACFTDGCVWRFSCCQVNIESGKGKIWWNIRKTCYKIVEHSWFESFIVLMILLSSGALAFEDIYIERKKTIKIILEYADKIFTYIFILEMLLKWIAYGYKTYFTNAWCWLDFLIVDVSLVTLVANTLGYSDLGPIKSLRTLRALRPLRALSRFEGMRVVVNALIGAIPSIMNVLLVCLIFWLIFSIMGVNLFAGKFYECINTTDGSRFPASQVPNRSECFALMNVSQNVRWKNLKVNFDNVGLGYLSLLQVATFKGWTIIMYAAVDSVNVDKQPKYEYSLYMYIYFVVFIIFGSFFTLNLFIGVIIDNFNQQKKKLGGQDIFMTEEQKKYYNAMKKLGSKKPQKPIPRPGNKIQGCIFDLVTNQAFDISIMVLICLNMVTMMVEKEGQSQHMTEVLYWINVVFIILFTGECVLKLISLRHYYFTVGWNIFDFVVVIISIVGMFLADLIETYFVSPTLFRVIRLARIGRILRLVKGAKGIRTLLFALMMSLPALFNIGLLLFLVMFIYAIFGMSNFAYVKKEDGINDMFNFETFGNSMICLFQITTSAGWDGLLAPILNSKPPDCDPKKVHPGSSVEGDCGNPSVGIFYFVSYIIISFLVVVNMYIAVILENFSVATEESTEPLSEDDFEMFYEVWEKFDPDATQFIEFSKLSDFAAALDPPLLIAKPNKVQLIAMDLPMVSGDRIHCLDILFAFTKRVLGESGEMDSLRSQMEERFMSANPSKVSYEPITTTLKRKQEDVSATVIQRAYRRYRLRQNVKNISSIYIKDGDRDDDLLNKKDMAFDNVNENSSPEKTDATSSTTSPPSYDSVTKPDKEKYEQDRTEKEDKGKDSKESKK
T2 sequence (Q07699 19-218 partner): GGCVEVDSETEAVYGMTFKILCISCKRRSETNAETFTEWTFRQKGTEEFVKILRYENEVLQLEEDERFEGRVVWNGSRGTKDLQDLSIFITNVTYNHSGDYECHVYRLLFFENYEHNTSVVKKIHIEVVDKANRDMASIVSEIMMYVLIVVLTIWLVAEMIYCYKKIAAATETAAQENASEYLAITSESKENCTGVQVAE
In short: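 HEK293F cells stably co-expressing hNav1.7 and β1 were recorded by automated patch clamp in TEA-based external solution (50 mM NaCl, pH 7.4) with CsF internal solution (pH 7.2). A variable conditioning prepulse inactivated channels, followed by a brief hyperpolarizing step and a depolarizing test pulse. Compounds at 10 μM were compared with 0.2% DMSO vehicle across four parameters.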

hNav1.7 [2] = target: T1, hNav1.7; assay: Nav1.7 potency, manual patch clamp; assay type: cell-based; conditions: manual patchclamp
Experimental: as §1, §2

male Sprague-Dawley rat = assay: Formalin test in rats (automated flinch detection); assay type: in vivo; conditions: 100 mg/kg SC 1 hour prior to formalin
Experimental: The formalin test in rats was performed as previously described (McNamara, 2007. Proc. Natl. Acad. Sci., vol 104, page 13525) using an automated flinch-detecting system (T. Yaksh, University of California at San Diego, La Jolla, Calif.). On the day of testing, a small metal band (0.5 g) was loosely placed around the right hind paw of a male Sprague-Dawley rat (average weight, ˜250 g). The rats were allowed to acclimate to a Plexiglas chamber for at least 30 min before testing. Formalin was then injected (50 μl of 2.5% formalin, diluted in saline) into the dorsal surface of the right hind paw of the rat, and the animal was put into a chamber of the automated formalin apparatus where movement of the formalin-injected paw was recorded. The number of paw flinches per minute was tallied for the next 60 minutes. The time interval phases were defined as follows: Phase I (0-9 mins), Phase II (10-60 mins), Phase IIA (10-40 mins), and Phase IIB (41-60 mins). The following compounds were administered 1 hour prior to formalin administration. Compound 52 from Table 1 was administered by oral gavage in 4% DMSO, 10% Solutol, 86% H2O. Gabapentin was administered subcutaneously in 0.9% NaCl (aq).

[3] = 7 Hz, read-out: Nav1.7 IC50 INWARD CURRENT BLOCK (nM) (7 Hz, Automated Patchclamp)
[4] = initial pulse (P1), read-out: Nav1.7 IC50 P1 BLOCK (nM) (Automated Patchclamp)
[5] = slow inactivated state, read-out: Nav1.7 IC50 SLOW INACTIVATION BLOCK (nM) (Automated Patchclamp)
[6] = slow inactivated state, read-out: Nav1.7 IC50 SLOW INACTIVATION BLOCK (nM) (Manual Patchclamp)

T1 sequence (Q15858 whole entry): as the sequence (Q15858 whole entry) above
T1 sequence (Q07699 19-218 partner): as the sequence (Q07699 19-218 partner) above

SMILES	IC50 (hNav1.7 [1]; [3]) [nM]	IC50 (hNav1.7 [1]; [4]) [nM]	IC50 (hNav1.7 [1]; [5]) [nM]	hNav1.7: Reduction in current at 20 mV (normalized data) Delta Ratio (human Nav1.7)	hNav1.7: Voltage dependence of activation (mV) VDEP (human Nav1.7) [mV]	hNav1.7: Voltage dependence of fast inactivation (mV) VDEP (human Nav1.7) [mV]	hNav1.7: Shift in voltage dependence of inactivation (mV) Delta Vhalf (human Nav1.7) [mV]	IC50 (hNav1.7 [2]; [6]) [nM]	Phase 1 (paw flinches) (male Sprague-Dawley rat; Phase I (0-9 mins))	Total Phase 2 (paw flinches) (male Sprague-Dawley rat; Phase II (10-60 mins))	Phase 2a (paw flinches) (male Sprague-Dawley rat; Phase IIA (10-40 mins))	Phase 2b (paw flinches) (male Sprague-Dawley rat; Phase IIB (41-60 mins))	IC50 (hNav1.7 [1]; 0.25 Hz, read-out: Nav1.7 IC50 INWARD CURRENT BLOCK (nM) (0.25 Hz, Automated Patchclamp))	IC50 (hNav1.7 [2]; 7 Hz, read-out: Nav1.7 IC50 INWARD CURRENT BLOCK (nM) (7 Hz, Manual Patchclamp))
CC(C)C[C@@H](N)C(=O)NC(C)COc1cc(C(F)(F)F)cc(C(F)(F)F)c1 (stereo partly drawn) [Compound 6, (2R)-2-amino-N-(1-(3,5-bis(trifluoromethyl)phenoxy)propan-2-yl)-4-methylpentanamide]	1660	12700	2770	−0.25	−4.80	−6.20	−32.70							
CC(C)C[C@@H](N)C(=O)N[C@@H](C)COc1cc(C(F)(F)F)cc(C(F)(F)F)c1 [Compound 1, (R)-2-amino-N-((S)-1-(3,5-bis(trifluoromethyl)phenoxy)propan-2-yl)-4-methylpentanamide]		15500	2580	−0.30	−8.60	−6.80	−20.90	568						
NCC1(CC(=O)O)CCCCC1 [Gabapentin]									320 ± 58	562 ± 213	486 ± 202	77 ± 47		
CC(C)C[C@@H](N)C(=O)NC(COc1cc(C(F)(F)F)cc(C(F)(F)F)c1)c1ccccc1 (stereo partly drawn) [Compound 38, (2R)-2-amino-N-(2-(3,5-bis(trifluoromethyl)phenoxy)-1-phenylethyl)-4-methylpentanamide]		10300	5320	−0.34	−11.5	−15.3	−33.7	436						
N[C@@H](c1ccc(Cl)cc1)c1nc2cc(C(F)(F)F)cc(C(F)(F)F)c2[nH]1 [Compound 54, (S)-(4,6-bis(trifluoromethyl)-1H-benzo[d]imidazol-2-yl)(4-chlorophenyl)methanamine]			2890	−0.26	−10	−8.6	−27.4	312						
CC(C)CC(N)C(=O)N[C@@H](C)COc1cc(C(F)(F)F)cc(C(F)(F)F)c1 (stereo partly drawn) [Compound 10, 2-amino-N-((S)-1-(3,5-bis(trifluoromethyl)phenoxy)propan-2-yl)-4-methylpentanamide]	1890	11500	4120	−0.20	−3.70	−3.50	−31.40							
O=C(NC[C@H]1CCCN1)Nc1cc(C(F)(F)F)cc(C(F)(F)F)c1 [Compound 49, (R)-1-(3,5-bis(trifluoromethyl)phenyl)-3-(pyrrolidin-2-ylmethyl)urea]				−0.18	−10.20	−7.80	−6.40							
CC(C)(CN1CCNCC1=O)c1nc2cc(F)cc(F)c2[nH]1 [Compound 70, 1-(2-(4,6-difluoro-1H-benzo[d]imidazol-2-yl)-2-methylpropyl)piperazin-2-one]				−0.08	−5.3	−5.7	−4.6							
NCC(=O)NCc1cc(C(F)(F)F)cc(C(F)(F)F)c1 [Compound 78, 2-amino-N-(3,5-bis(trifluoromethyl)benzyl)acetamide]				−0.04	−10.5	−4.6	−4.2							
CN[C@H](CC(C)C)C(=O)NCCOc1cc(F)cc(C(F)(F)F)c1 [Compound 16, (R)-N-(2-(3-fluoro-5-(trifluoromethyl)phenoxy)ethyl)-4-methyl-2-(methylamino)pentanamide]	9620		8120	−0.11	−2.80	−2.60	−14.70	3500					15000	23200
O=C1CNCCN1CCCc1nc2cc(C(F)(F)F)cc(C(F)(F)F)c2[nH]1 [Compound 69]				−0.09	−9.2	−4.9	−7.5							
O=C1NC(=O)C(c2cc(C(F)(F)F)cc(C(F)(F)F)c2)N1 (centres unmarked) [Compound 41, 5-(3,5-bis(trifluoromethyl)phenyl) imidazolidine-2,4-dione]				0.00	−9.00	−5.30	−2.80							
N[C@H](Cc1cccc(C(F)(F)F)c1)C(=O)NCc1nc2ccc(-c3ccc(F)c(Cl)c3)cc2[nH]1 [Compound 71, (R)-2-amino-N-((6-(3-chloro-4-fluorophenyl)-1H-benzo[d]imidazol-2-yl)methyl)-3-(3-(trifluoromethyl)phenyl)propanamide]				−0.07	−10.5	−6.3	−8.5							
